# Measurements taken from patent publication US20180110796A1, “COMPOSITIONS AND METHODS FOR THE TREATMENT OF HBV INFECTION” (Spring Bank Pharmaceuticals, Inc., priority 2015, published 2018).
# Experiment: Plasma levels by LC-MS after oral Formula (IIa) (Example 2)
# Type: in vivo, woodchuck (Marmota monax)
# Settings: 15 and 30 mg/kg oral, approximately 2 hours post-dose
# Procedure: Plasma levels of Formula (Ia) were evaluated at pretreatment (T0) and then bi-weekly throughout the study at approximately 2 hours post-dose. Woodchuck plasma was analyzed by LC-MS and quantified using isotopically enriched internal standards.
smiles,measurement,value
COC1[C@@H](OP(=O)(OC[C@H]2O[C@@H](n3cnc4c(N)ncnc43)C[C@H]2O)SCOC(=O)OC(C)C)[C@@H](CO)O[C@H]1n1ccc(=O)[nH]c1=O (stereo partly shown) [Formula (IIa)],plasma exposure following oral administration,dose-dependent
